{
  "source": "the NIST ThermoML archive (doi:10.1021/acs.jced.8b00785)",
  "key": {"[1]": {"details": "Crystal; DSC"}, "[2]": {"assay": "Molar enthalpy of transition or fusion", "details": "Crystal; DSC"}},
  "note": "± gives the expanded uncertainty stated by the source.",
  "data": [
    {"smiles": "NNC(=O)c1ccncc1", "note": "[isonicotinic acid hydrazide]", "values": [
      {"measurement": "Triple point temperature", "setting": "[1]", "result": "446.04 ± 0.87", "unit": "K"},
      {"measurement": "Molar enthalpy of transition or fusion", "setting": "[2]", "result": "6.72 ± 0.359", "unit": "kcal/mol"}
    ]}
  ]
}
